Patent US8580794B2 (AbbVie Inc., priority 2009, dated 2013)

Target: GST-Bc1-2 (Homo sapiens, UniProt P10415)
Assay: Time Resolved-Fluorescence Resonance Energy Transfer (TR-FRET) Bcl-2 binding assay with F-Bak peptide probe
Conditions: GST-Bcl-2 1 nM, F-Bak probe 100 nM, Tb-anti-GST 1 nM; '<' = below limit of detection; read-out: TR-FRET Bcl-2 Binding Ki

GST-Bc1-2, sequence (P10415 whole entry): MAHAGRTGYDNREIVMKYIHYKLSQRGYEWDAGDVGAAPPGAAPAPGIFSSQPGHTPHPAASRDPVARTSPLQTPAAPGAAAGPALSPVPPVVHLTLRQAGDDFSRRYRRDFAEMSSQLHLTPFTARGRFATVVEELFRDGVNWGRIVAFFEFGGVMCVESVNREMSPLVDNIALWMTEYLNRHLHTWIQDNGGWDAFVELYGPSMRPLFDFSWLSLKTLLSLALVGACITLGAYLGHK

Row | SMILES | Ki [nM]
1 | CC1(C)CCC(CN2CCN(c3ccc(C(=O)NS(=O)(=O)c4ccc(OCC5(F)CCN(C6CC6)CC5)c([N+](=O)[O-])c4)c(Oc4cnc5[nH]ccc5c4)c3)CC2)=C(c2ccc(Cl)cc2)C1 [Example 173, 4-(4-{[2-(4-chlorophenyl)-4,4-dimethylcyclohex-1-en-1-yl]methyl}piperazin-1-yl)-N-({4-[(1-cyclopropyl-4-fluoropiperidin-4-yl)methoxy]-3-nitrophenyl}sulfonyl)-2-(1H-pyrrolo[2,3-b]pyridin-5-yloxy)benzamide] | < 0.01
2 | COc1ccc(CNc2ccc(S(=O)(=O)NC(=O)c3ccc(N4CCN(CC5=C(c6ccc(Cl)cc6)CC(C)(C)CC5)CC4)cc3Oc3cnc4[nH]ccc4c3)cc2[N+](=O)[O-])cc1 [Example 174, 4-(4-{[2-(4-chlorophenyl)-4,4-dimethylcyclohex-1-en-1-yl]methyl}piperazin-1-yl)-N-({4-[(4-methoxybenzyl)amino]-3-nitrophenyl}sulfonyl)-2-(1H-pyrrolo[2,3-b]pyridin-5-yloxy)benzamide] | < 0.01
3 | CC1(C)CCC(CN2CCN(c3ccc(C(=O)NS(=O)(=O)c4ccc(NCc5cccc(OC(F)(F)F)c5)c([N+](=O)[O-])c4)c(Oc4cnc5[nH]ccc5c4)c3)CC2)=C(c2ccc(Cl)cc2)C1 [Example 175, 4-(4-{[2-(4-chlorophenyl)-4,4-dimethylcyclohex-1-en-1-yl]methyl}piperazin-1-yl)-N-[(3-nitro-4-{[3-(trifluoromethoxy)benzyl]amino}phenyl)sulfonyl]-2-(1H-pyrrolo[2,3-b]pyridin-5-yloxy)benzamide] | 0.119
4 | COc1cccc(CNc2ccc(S(=O)(=O)NC(=O)c3ccc(N4CCN(CC5=C(c6ccc(Cl)cc6)CC(C)(C)CC5)CC4)cc3Oc3cnc4[nH]ccc4c3)cc2[N+](=O)[O-])c1 [Example 176, 4-(4-{[2-(4-chlorophenyl)-4,4-dimethylcyclohex-1-en-1-yl]methyl}piperazin-1-yl)-N-({4-[(3-methoxybenzyl)amino]-3-nitrophenyl}sulfonyl)-2-(1H-pyrrolo[2,3-b]pyridin-5-yloxy)benzamide] | 0.023
5 | CC1(C)CCC(CN2CCN(c3ccc(C(=O)NS(=O)(=O)c4ccc(NCc5ccc(OC(F)F)cc5)c([N+](=O)[O-])c4)c(Oc4cnc5[nH]ccc5c4)c3)CC2)=C(c2ccc(Cl)cc2)C1 [Example 177, 4-(4-{[2-(4-chlorophenyl)-4,4-dimethylcyclohex-1-en-1-yl]methyl}piperazin-1-yl)-N-[(4-{[4-(difluoromethoxy)benzyl]amino}-3-nitrophenyl)sulfonyl]-2-(1H-pyrrolo[2,3-b]pyridin-5-yloxy)benzamide] | 0.111
6 | CC1(C)CCC(CN2CCN(c3ccc(C(=O)NS(=O)(=O)c4ccc(NC5CCC6(CC5)OCCO6)c([N+](=O)[O-])c4)c(Oc4cnc5[nH]ccc5c4)c3)CC2)=C(c2ccc(Cl)cc2)C1 [Example 178, 4-(4-{[2-(4-chlorophenyl)-4,4-dimethylcyclohex-1-en-1-yl]methyl}piperazin-1-yl)-N-{[4-(1,4-dioxaspiro[4.5]dec-8-ylamino)-3-nitrophenyl]sulfonyl}-2-(1H-pyrrolo[2,3-b]pyridin-5-yloxy)benzamide] | 0.076
7 | CC(=O)N[C@H]1CC[C@H](Nc2ccc(S(=O)(=O)NC(=O)c3ccc(N4CCN(CC5=C(c6ccc(Cl)cc6)CC(C)(C)CC5)CC4)cc3Oc3cnc4[nH]ccc4c3)cc2[N+](=O)[O-])CC1 [Example 179, Trans-N-[(4-{[4-(acetylamino)cyclohexyl]amino}-3-nitrophenyl)sulfonyl]-4-(4-{[2-(4-chlorophenyl)-4,4-dimethylcyclohex-1-en-1-yl]methyl}piperazin-1-yl)-2-(1H-pyrrolo[2,3-b]pyridin-5-yloxy)benzamide] | < 0.01
